# Where two headings read alike, the source gives them in different places.
# Columns and labels:
# H+/K+-ATPase = H+/K+-ATPase (Rattus norvegicus, UniProt P09626); experiment: H+/K+-ATPase activity inhibition test; settings: for IC50 for H+/K+-ATPase: stomach enzyme, pre-incubated 37° C. 30 minutes, pH 7.4
# Helicobacter pylori = experiment: Inhibitory effect on proliferation of Helicobacter pylori (MIC, Brucella agar); assay type: cell-based
# [1] = H. pylori strain ATCC 43504, 37° C., 3 days
# [2] = H. pylori strain Clinical 4, 37° C., 3 days
# [3] = H. pylori strain Clinical 82516, 37° C., 3 days
# [4] = H. pylori strain Clinical 82548, 37° C., 3 days
# [5] = H. pylori strain NCTC 11637, 37° C., 3 days
# [6] = H. pylori strain NCTC 11638, 37° C., 3 days
# Sequence of H+/K+-ATPase (P09626 whole entry): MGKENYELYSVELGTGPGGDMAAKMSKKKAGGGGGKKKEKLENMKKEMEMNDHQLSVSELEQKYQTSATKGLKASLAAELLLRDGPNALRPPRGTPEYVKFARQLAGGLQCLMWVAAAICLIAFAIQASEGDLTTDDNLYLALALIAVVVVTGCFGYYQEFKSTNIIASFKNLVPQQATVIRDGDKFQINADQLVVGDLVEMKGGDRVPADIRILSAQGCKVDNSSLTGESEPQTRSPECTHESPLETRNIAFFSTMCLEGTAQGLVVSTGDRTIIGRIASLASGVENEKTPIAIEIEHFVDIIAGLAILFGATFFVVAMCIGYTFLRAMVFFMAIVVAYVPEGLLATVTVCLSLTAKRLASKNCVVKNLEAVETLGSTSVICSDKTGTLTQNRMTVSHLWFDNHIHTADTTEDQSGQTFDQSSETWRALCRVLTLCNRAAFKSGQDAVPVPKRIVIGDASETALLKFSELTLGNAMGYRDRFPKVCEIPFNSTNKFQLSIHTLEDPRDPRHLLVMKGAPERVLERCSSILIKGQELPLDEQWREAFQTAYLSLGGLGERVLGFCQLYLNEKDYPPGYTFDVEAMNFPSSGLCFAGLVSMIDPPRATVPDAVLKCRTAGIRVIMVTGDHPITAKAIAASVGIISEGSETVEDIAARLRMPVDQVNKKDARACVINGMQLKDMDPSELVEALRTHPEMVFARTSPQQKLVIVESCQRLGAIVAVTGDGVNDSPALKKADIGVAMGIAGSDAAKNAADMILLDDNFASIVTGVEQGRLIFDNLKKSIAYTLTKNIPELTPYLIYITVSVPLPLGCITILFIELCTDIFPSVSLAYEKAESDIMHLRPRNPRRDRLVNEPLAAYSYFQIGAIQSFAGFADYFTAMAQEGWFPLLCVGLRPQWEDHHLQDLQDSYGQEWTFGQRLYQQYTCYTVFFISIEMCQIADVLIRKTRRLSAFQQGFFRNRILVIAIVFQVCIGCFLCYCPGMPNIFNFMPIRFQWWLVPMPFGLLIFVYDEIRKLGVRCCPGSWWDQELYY
# Sequence of H+/K+-ATPase (P18598 whole entry partner): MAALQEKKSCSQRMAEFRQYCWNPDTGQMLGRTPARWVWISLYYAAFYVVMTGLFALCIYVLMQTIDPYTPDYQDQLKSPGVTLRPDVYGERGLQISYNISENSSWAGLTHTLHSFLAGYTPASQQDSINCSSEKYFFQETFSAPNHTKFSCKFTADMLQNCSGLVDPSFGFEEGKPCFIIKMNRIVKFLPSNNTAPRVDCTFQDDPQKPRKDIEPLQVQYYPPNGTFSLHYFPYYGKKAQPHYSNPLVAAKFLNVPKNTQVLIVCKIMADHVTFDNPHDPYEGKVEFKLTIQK
SMILES,MIC ATCC 43504 (Helicobacter pylori; [1]) [µg/mL],MIC Clinical 4 (Helicobacter pylori; [2]) [µg/mL],MIC Clinical 82516 (Helicobacter pylori; [3]) [µg/mL],MIC Clinical 82548 (Helicobacter pylori; [4]) [µg/mL],MIC NCTC 11637 (Helicobacter pylori; [5]) [µg/mL],MIC NCTC 11638 (Helicobacter pylori; [6]) [µg/mL],IC50 for H+/K+-ATPase (H+/K+-ATPase) [µg/mL],also measured
"COc1ccc2[nH]c([S+]([O-])Cc3ncc(C)c(OC)c3C)nc2c1 (centres unmarked) [Omeprazole, reference compound]",–,–,–,–,–,–,–,IC50 (H+/K+-ATPase): 57.9 µM
CC(C)=CCC[C@](C)(O)[C@H]1CC[C@]2(C)[C@@H]1[C@H](O)C[C@@H]1[C@@]3(C)CC[C@H](O[C@@H]4O[C@H](CO)[C@@H](O)[C@H](O)[C@H]4O[C@@H]4O[C@H](CO)[C@@H](O)[C@H](O)[C@H]4O)C(C)(C)[C@@H]3CC[C@]12C [20(S)-ginsenoside Rg3],200,200,200,200,200,200,600,–
CC(C)=CCC[C@](C)(O)[C@H]1CC[C@]2(C)[C@@H]1[C@H](O)C[C@@H]1[C@@]3(C)CC[C@H](O)C(C)(C)[C@@H]3CC[C@]12C [20(S)-protopanaxadiol],50,50,50,50,50,50,>1000,inhibiting activity of proliferation of Helicobacter strain (Helicobacter pylori; result in words): potent inhibiting activity
CC(C)=CCC[C@](C)(O[C@@H]1O[C@H](CO[C@@H]2O[C@@H](CO)[C@H](O)[C@H]2O)[C@@H](O)[C@H](O)[C@H]1O)[C@H]1CC[C@]2(C)[C@@H]1[C@H](O)C[C@@H]1[C@@]3(C)CC[C@H](O[C@@H]4O[C@H](CO)[C@@H](O)[C@H](O)[C@H]4O[C@@H]4O[C@H](CO)[C@@H](O)[C@H](O)[C@H]4O)C(C)(C)[C@@H]3CC[C@]12C [Ginsenoside Rc],–,–,–,–,–,–,–,"MIC (Helicobacter pylori; Helicobacter pylori, 72 h, H. pylori strain Clinical 4, 37° C., 3 days, read-out: MIC Clinical 4): > 100 µg/mL; MIC (Helicobacter pylori; Helicobacter pylori, 72 h, H. pylori strain Clinical 82516, 37° C., 3 days, read-out: MIC Clinical 82516): > 100 µg/mL; MIC (Helicobacter pylori; Helicobacter pylori, 72 h, H. pylori strain Clinical 82548, 37° C., 3 days, read-out: MIC Clinical 82548): > 100 µg/mL; MIC (Helicobacter pylori; Helicobacter pylori, ATCC43504, 72 h, H. pylori strain ATCC 43504, 37° C., 3 days, read-out: MIC ATCC 43504): > 100 µg/mL; MIC (Helicobacter pylori; Helicobacter pylori, NCTC11637, 72 h, H. pylori strain NCTC 11637, 37° C., 3 days, read-out: MIC NCTC 11637): > 100 µg/mL; MIC (Helicobacter pylori; Helicobacter pylori, NCTC11638, 72 h, H. pylori strain NCTC 11638, 37° C., 3 days, read-out: MIC NCTC 11638): > 100 µg/mL; IC50 (H+/K+-ATPase): > 927 µM"
CC(C)=CCC[C@@](C)(O)[C@H]1CC[C@]2(C)[C@@H]1[C@H](O)C[C@@H]1[C@@]3(C)CC[C@H](O)C(C)(C)[C@@H]3CC[C@]12C [20(R)-protopanaxadiol],50,50,50,50,50,50,–,–
CC(C)=CCC[C@@](C)(O)[C@H]1CC[C@]2(C)[C@@H]1[C@H](O)C[C@@H]1[C@@]3(C)CC[C@H](O)C(C)(C)[C@@H]3CC[C@]12C [protopanaxadiol],–,–,–,–,–,–,–,MIC (Helicobacter pylori; strain not specified): 50 µg/mL
CC(C)=CCC[C@](C)(O)[C@H]1CC[C@]2(C)[C@@H]1[C@H](O)C[C@@H]1[C@@]3(C)CC[C@H](O[C@@H]4O[C@H](CO)[C@@H](O)[C@H](O)[C@H]4O[C@@H]4O[C@H](CO)[C@@H](O)[C@H](O)[C@H]4O)C(C)(C)[C@@H]3CC[C@]12C [20(R)-ginsenoside Rg3],200,200,200,200,200,200,700,–
CC(C)=CCC[C@](C)(O)[C@H]1CC[C@]2(C)[C@@H]1[C@H](O)C[C@@H]1[C@@]3(C)CC[C@H](O)C(C)(C)[C@@H]3[C@@H](O[C@@H]3O[C@H](CO)[C@@H](O)[C@H](O)[C@H]3O)C[C@]12C [Ginsenoside Rh1],>100,>100,>100,>100,>100,>100,>1000,–
"CC(C)=CCC[C@](C)(O[C@@H]1O[C@H](CO)[C@@H](O)[C@H](O)[C@H]1O)[C@H]1CC[C@]2(C)[C@@H]1[C@H](O)C[C@@H]1[C@@]3(C)CC[C@H](O)C(C)(C)[C@@H]3CC[C@]12C [Compound K, reference compound]",>100,>100,>100,>100,>100,>100,>1000,–
CC(C)=CCC[C@](C)(O)[C@H]1CC[C@]2(C)[C@@H]1[C@H](O)C[C@@H]1[C@@]3(C)CC[C@H](O)C(C)(C)[C@@H]3[C@@H](O)C[C@]12C [Protopanaxatriol],50,50,50,50,50,50,–,–
CC(C)=CCC[C@](C)(O)[C@H]1CC[C@]2(C)[C@@H]1[C@H](O)C[C@@H]1[C@@]3(C)CC[C@H](O[C@@H]4O[C@H](CO)[C@@H](O)[C@H](O)[C@H]4O)C(C)(C)[C@@H]3CC[C@]12C [20(S)-ginsenoside Rh2],100,100,100,100,100,100,500,–
"CC(C)=CCC[C@](C)(O[C@@H]1O[C@H](CO[C@@H]2OC[C@H](O)[C@H](O)[C@H]2O)[C@@H](O)[C@H](O)[C@H]1O)[C@H]1CC[C@]2(C)[C@@H]1[C@H](O)C[C@@H]1[C@@]3(C)CC[C@H](O[C@@H]4O[C@H](CO)[C@@H](O)[C@H](O)[C@H]4O[C@@H]4O[C@H](CO)[C@@H](O)[C@H](O)[C@H]4O)C(C)(C)[C@@H]3CC[C@]12C [Ginsenoside Rb2, reference compound]",>100,>100,>100,>100,>100,>100,>1000,–
CC(C)=CCC[C@@](C)(O)[C@H]1CC[C@]2(C)[C@@H]1[C@H](O)C[C@@H]1[C@@]3(C)CC[C@H](O[C@@H]4O[C@H](CO)[C@@H](O)[C@H](O)[C@H]4O)C(C)(C)[C@@H]3CC[C@]12C [20(R)-ginsenoside Rh2],100,100,100,100,100,100,500,–
CC1(C)CCC[C@](C)([C@H]2CC[C@]3(C)[C@@H]2[C@H](O)C[C@@H]2[C@@]4(C)CC[C@H](O)C(C)(C)[C@@H]4[C@@H](O)C[C@]23C)O1 [panaxatriol],–,–,–,–,–,–,–,"MIC (Helicobacter pylori; Helicobacter pylori, strain not specified, read-out: MIC): 50 µg/mL"
CC(C)=CCC[C@](C)(O[C@@H]1O[C@H](CO[C@@H]2O[C@H](CO)[C@@H](O)[C@H](O)[C@H]2O)[C@@H](O)[C@H](O)[C@H]1O)[C@H]1CC[C@]2(C)[C@@H]1[C@H](O)C[C@@H]1[C@@]3(C)CC[C@H](O[C@@H]4O[C@H](CO)[C@@H](O)[C@H](O)[C@H]4O[C@@H]4O[C@H](CO)[C@@H](O)[C@H](O)[C@H]4O)C(C)(C)[C@@H]3CC[C@]12C [Ginsenoside Rb1],>100,>100,>100,>100,>100,>100,>1000,–

# From patent US20030190377A1, “Novel use of the extract of processed Panax genus plant and saponin compound isolated therefrom” (Ginseng Science Inc., priority 2002, published 2003)
